The values that follow come from patent US12404241B2 (Celgene Corporation, priority 2018, dated 2025).

The structures appear in SMILES notation. Structures can show the parent of a compound that is named as a salt.

The target of this assay is T1, AR (Homo sapiens, UniProt P10275).
T1 construct: endogenous in cells; host or cells: VCaP cells
T1 sequence (P10275 1-920): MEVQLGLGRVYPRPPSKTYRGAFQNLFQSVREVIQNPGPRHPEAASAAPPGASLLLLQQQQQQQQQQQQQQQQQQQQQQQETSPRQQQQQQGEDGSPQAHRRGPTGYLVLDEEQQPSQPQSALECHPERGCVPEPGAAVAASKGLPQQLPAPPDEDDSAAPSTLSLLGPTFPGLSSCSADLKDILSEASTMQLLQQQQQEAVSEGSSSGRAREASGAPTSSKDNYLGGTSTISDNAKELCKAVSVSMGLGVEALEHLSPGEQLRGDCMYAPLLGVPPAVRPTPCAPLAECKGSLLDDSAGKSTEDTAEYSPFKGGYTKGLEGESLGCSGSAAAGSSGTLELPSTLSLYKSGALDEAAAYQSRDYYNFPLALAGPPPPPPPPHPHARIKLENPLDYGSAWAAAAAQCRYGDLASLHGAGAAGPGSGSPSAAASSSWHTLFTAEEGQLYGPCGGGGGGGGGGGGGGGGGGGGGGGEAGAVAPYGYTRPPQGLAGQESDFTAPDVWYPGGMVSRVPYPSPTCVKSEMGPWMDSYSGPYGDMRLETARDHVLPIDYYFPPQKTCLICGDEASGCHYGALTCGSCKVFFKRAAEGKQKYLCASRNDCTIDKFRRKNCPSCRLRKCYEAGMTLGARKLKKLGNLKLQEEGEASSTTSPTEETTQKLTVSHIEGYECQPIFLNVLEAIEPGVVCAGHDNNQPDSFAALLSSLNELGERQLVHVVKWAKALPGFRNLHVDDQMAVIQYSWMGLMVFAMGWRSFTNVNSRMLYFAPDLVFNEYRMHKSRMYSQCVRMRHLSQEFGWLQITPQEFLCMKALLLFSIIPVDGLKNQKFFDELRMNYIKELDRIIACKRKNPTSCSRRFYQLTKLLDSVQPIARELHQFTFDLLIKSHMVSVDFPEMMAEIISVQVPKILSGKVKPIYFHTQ
Kind of assay: VCAP AR Degradation Assay. The format is cell-based. Particulars: for Y (AR degradation efficiency, % of DMSO control): class symbols *; for DC50: class symbols A-C, read-out: DC50. How it is done:
VCAP AR Degradation Assay. Test compounds were pre-dispensed into a Corning CellBind 96-well clear bottom plate (Cat #3300) using an acoustic dispenser to make a 10-point concentration series at 1:3 dilution for each compound. The final top concentration of each compound was 5 μM. DMSO at a final concentration of 0.1% was used as a control. VCaP cells cultured in DMEM with 8% fetal bovine serum (FBS) were seeded at 50K cells per well in a 200 μL volume into the compound plate and incubated at 37° C. in a CO2 incubator for 24 h. The medium was carefully removed from the cells and the plate was placed on ice. One hundred μL of ice-cold 1x cell lysis buffer from Cell Signaling Technologies (Cat #9803) was added to each well of the cells and the plate was incubated at 4° C. on a shaker for 1 h. Fifteen μL of cell lysate was used for AR ELISA detection using a PathScan Total Sandwich AR ELISA kit (Cell Signaling Technology, Cat #12580). AR levels in compound-treated wells were normalized to that of DMSO control and expressed as percent of control (PoC) (y). A Four Parameter Logistic Model (Sigmoidal Dose-Response Model) was used to determine the compound's DC50, and EC50, using the following equation:
[formula] • A=YMin (lowest AR level normalized to DMSO control in response to compound treatment, as determined by curve fit) • B=YMax (maximum AR level as determined by curve fit) • C=EC50 • D=Hill Slope • x=compound concentration • EC50=the concentration of compound when y=(YMax−YMin)/2 • DC50=the concentration of the compound when y=50% of DMSO control (50% AR degradation) • y=AR protein level normalized to DMSO control
The lowest measured AR level normalized to DMSO control in response to compound treatment, termed Y value, was used to characterize the compound-mediated AR degradation efficiency.

Turning to `CCc1cc(N2C(=S)N(c3ccc(C#N)c(C(F)(F)F)c3)C(=O)C2(C)C)ccc1OCCN1CCN(CC(=O)Nc2cccc(NC3CCC(=O)NC3=O)c2)C(C)(C)C1` (stereo not drawn) [Example 95, 2-(4-(2-(4-(3-(4-cyano-3-(trifluoromethyl)phenyl)-5,5-dimethyl-4-oxo-2-thioxoimidazolidin-1-yl)-2-ethylphenoxy)ethyl)-2,2-dimethylpiperazin-1-yl)-N-(3-(2,6-dioxopiperidin-3-ylamino)phenyl)acetamide], the “Y (AR degradation efficiency, % of DMSO control)” value was “* (0<Y<=25%)” and the 50% degradation concentration (DC50) is under 0.1 µM.
As for `CCc1cc(N2C(=S)N(c3ccc(C#N)c(C(F)(F)F)c3)C(=O)C2(C)C)ccc1OCCN1CC2CCC(C1)N2CC(=O)Nc1cccc(NC2CCC(=O)NC2=O)c1` (stereo not drawn) [Example 177, 2-(3-(2-(4-(3-(4-cyano-3-(trifluoromethyl)phenyl)-5,5-dimethyl-4-oxo-2-thioxoimidazolidin-1-yl)-2-ethylphenoxy)ethyl)-3,8-diazabicyclo[3.2.1]octan-8-yl)-N-(3-(2,6-dioxopiperidin-3-ylamino)phenyl)acetamide], the “Y (AR degradation efficiency, % of DMSO control)” value is given as “* (0<Y<=25%)” and the DC50 was in the range of 0.1 to 0.5 µM.
Turning to `CCc1cc(N2C(=S)N(c3ccc(C#N)c(C(F)(F)F)c3)C(=O)C2(C)C)cc(C)c1OCCN1C[C@@H](C)N(CC(=O)Nc2cccc(NC3CCC(=O)NC3=O)c2)[C@@H](C)C1` (stereo partly drawn) [Example 249, 2-((2R,6S)-4-(2-(4-(3-(4-cyano-3-(trifluoromethyl)phenyl)-5,5-dimethyl-4-oxo-2-thioxoimidazolidin-1-yl)-2-ethyl-6-methylphenoxy)ethyl)-2,6-dimethylpiperazin-1-yl)-N-(3-(2,6-dioxopiperidin-3-ylamino)phenyl)acetamide], the “Y (AR degradation efficiency, % of DMSO control)” value is reported as “*** (35%<Y<50%)” and the DC50 lay in the range of 0.1 to 0.5 µM.
The matching figures for `CC(C)c1cc(N2C(=S)N(c3ccc(C#N)c(Cl)c3)C(=O)C2(C)C)ccc1OCCN1C[C@@H](C)N(CC(=O)Nc2cc(Cl)cc(NC3CCC(=O)NC3=O)c2)[C@@H](C)C1` (stereo partly drawn) [Example 223, 2-((2S,6R)-4-(2-(4-(3-(3-chloro-4-cyanophenyl)-5,5-dimethyl-4-oxo-2-thioxoimidazolidin-1-yl)-2-isopropylphenoxy)ethyl)-2,6-dimethylpiperazin-1-yl)-N-(3-chloro-5-(2,6-dioxopiperidin-3-ylamino)phenyl)acetamide]: “** (25%<Y<=35%)” and 0.1 to 0.5 µM.
In the case of `CCc1cc(N2C(=S)N(c3cnc(C#N)c(Cl)c3)C(=O)C2(C)C)ccc1OCCN1CCN(CC(=O)Nc2cccc(NC3CCC(=O)NC3=O)c2)[C@H](C)C1` (stereo partly drawn) [Example 167, 2-((R)-4-(2-(4-(3-(5-chloro-6-cyanopyridin-3-yl)-5,5-dimethyl-4-oxo-2-thioxoimidazolidin-1-yl)-2-ethylphenoxy)ethyl)-2-methylpiperazin-1-yl)-N-(3-(2,6-dioxopiperidin-3-ylamino)phenyl)acetamide], the “Y (AR degradation efficiency, % of DMSO control)” value is recorded as “* (0<Y<=25%)” and the DC50 was under 0.1 µM.
In the case of `CC(C)c1cc(N2C(=S)N(c3cnc(C#N)c(C(F)(F)F)c3)C(=O)C2(C)C)ccc1OCCN1CCN(CC(=O)Nc2cccc(NC3CCC(=O)NC3=O)c2)[C@H](C(F)(F)F)C1` (stereo partly drawn) [Example 256, 2-((S)-4-(2-(4-(3-(6-cyano-5-(trifluoromethyl)pyridin-3-yl)-5,5-dimethyl-4-oxo-2-thioxoimidazolidin-1-yl)-2-isopropylphenoxy)ethyl)-2-(trifluoromethyl)piperazin-1-yl)-N-(3-(2,6-dioxopiperidin-3-ylamino)phenyl)acetamide], the “Y (AR degradation efficiency, % of DMSO control)” value was “** (25%<Y<=35%)” and the DC50 is 0.1 to 0.5 µM.
Turning to `CC1(C)C(=O)N(c2ccc(C#N)c(C(F)(F)F)c2)C(=S)N1c1ccc(OCCN2CCN(CC(=O)Nc3cc(C#N)cc(NC4CCC(=O)NC4=O)c3)CC2)c(F)c1` (stereo not drawn) [Example 65, 2-(4-(2-(4-(3-(4-cyano-3-(trifluoromethyl)phenyl)-5,5-dimethyl-4-oxo-2-thioxoimidazolidin-1-yl)-2-fluorophenoxy)ethyl)piperazin-1-yl)-N-(3-cyano-5-(2,6-dioxopiperidin-3-ylamino)phenyl)acetamide], the “Y (AR degradation efficiency, % of DMSO control)” value is given as “** (25%<Y<=35%)” and the DC50 fell in the range of 0.1 to 0.5 µM.
Regarding `CC(C)Cc1cc(N2C(=S)N(c3ccc(C#N)c(C(F)(F)F)c3)C(=O)C2(C)C)ccc1OCCN1CCN(CC(=O)Nc2cccc(NC3CCC(=O)NC3=O)c2)CC1` (stereo not drawn) [Example 18], the “Y (AR degradation efficiency, % of DMSO control)” value is listed as “* (0<Y<=25%)” and the half-maximal degradation concentration (DC50) was under 0.1 µM.
The matching figures for `CCc1cc(N2C(=S)N(c3cnc(C#N)c(C(F)(F)F)c3)C(=O)C2(C)C)ccc1OCCN1CCN(CC(=O)Nc2cccc(N[C@H]3CCC(=O)NC3=O)c2)[C@H](C)C1` [Example 137, 2-((R)-4-(2-(4-(3-(6-cyano-5-(trifluoromethyl)pyridin-3-yl)-5,5-dimethyl-4-oxo-2-thioxoimidazolidin-1-yl)-2-ethylphenoxy)ethyl)-2-methylpiperazin-1-yl)-N-(3-((S)-2,6-dioxopiperidin-3-ylamino)phenyl)acetamide]: “* (0<Y<=25%)” and under 0.1 µM.
For `CCC(C)c1cc(N2C(=S)N(c3cnc(C#N)c(C(F)(F)F)c3)C(=O)C2(C)C)ccc1OCCN1CCN(CC(=O)Nc2cccc(NC3CCC(=O)NC3=O)c2)CC1` (stereo not drawn) [Example 37, hydrochloride] the same measures were “*** (35%<Y<50%)” and 0.5 to 1 µM.
`CC(C)c1cc(N2C(=S)N(c3ccc(C#N)c(C(F)(F)F)c3)C(=O)C2(C)C)ccc1OCCN1CCN(C2(C(=O)Nc3cccc(NC4CCC(=O)NC4=O)c3)CC2)CC1` (stereo not drawn) [Example 197]: the “Y (AR degradation efficiency, % of DMSO control)” value is listed as “*** (35%<Y<50%)” and the DC50 was in the range of 0.1 to 0.5 µM.
For `CC1(C)C(=O)N(c2ccc(C#N)c(C(F)(F)F)c2)C(=S)N1c1ccc(OCCN2CCN(CC(=O)Nc3cccc(NC4CCC(=O)NC4=O)c3)CC2)c(CCF)c1` (stereo not drawn) [Example 160, 2-(4-(2-(4-(3-(4-cyano-3-(trifluoromethyl)phenyl)-5,5-dimethyl-4-oxo-2-thioxoimidazolidin-1-yl)-2-(2-fluoroethyl)phenoxy)ethyl)piperazin-1-yl)-N-(3-(2,6-dioxopiperidin-3-ylamino)phenyl)acetamide] the same measures were “* (0<Y<=25%)” and under 0.1 µM.
For `CCc1cc(N2C(=S)N(c3ccc(C#N)c(C(F)(F)F)c3)C(=O)C2(C)C)ccc1O[C@H](C)CN1C[C@@H](C)N(CC(=O)Nc2cccc(NC3CCC(=O)NC3=O)c2)[C@@H](C)C1` (single isomer, unassigned) [Example 241] the same measures were “* (0<Y<=25%)” and 0.1 to 0.5 µM.
`CC1(C)C(=O)N(c2ccc(C#N)c(C(F)(F)F)c2)C(=S)N1c1ccc(OCCN2CCN(CC(=O)Nc3cc(Cl)cc(NC4CCC(=O)NC4=O)c3)CC2)c(F)c1` (stereo not drawn) [Example 4, hydrochloride]: the “Y (AR degradation efficiency, % of DMSO control)” value is listed as “* (0<Y<=25%)” and the DC50 was under 0.1 µM.
Consider `CCc1cc(N2C(=S)N(c3cnc(C#N)c(C(F)(F)F)c3)C(=O)C2(C)C)ccc1O[C@@H](C)CN1C[C@@H](C)N(CC(=O)Nc2cccc(NC3CCC(=O)NC3=O)c2)[C@@H](C)C1` (single isomer, unassigned) [Example 240], for which the “Y (AR degradation efficiency, % of DMSO control)” value is “** (25%<Y<=35%)” and the DC50 is 0.1 to 0.5 µM.

The DC50 is the concentration at which degradation of the target reaches its halfway point.
